Laboratory results taken from the NIST ThermoML archive (doi:10.1016/j.jct.2015.08.033).
Numbers after ± are expanded uncertainties.

Assay: mn = molality of the nth substance listed, in mol/kg
Settings: 100 kPa, Liquid; for speed of sound: Frequency=3 MHz, Sing-around technique in a fixed-path interferometer; for mass density: Vibrating tube method

[Ba+2].[O-][Cl+3]([O-])([O-])[O-].[O-][Cl+3]([O-])([O-])[O-] [barium perchlorate] + CC(=O)N(C)C
Settings	mass density, 298.15 K [kg/m3]	mass density, 303.15 K [kg/m3]	mass density, 308.15 K [kg/m3]	mass density, 313.15 K [kg/m3]	mass density, 318.15 K [kg/m3]	speed of sound, 298.15 K [m/s]	speed of sound, 303.15 K [m/s]	speed of sound, 308.15 K [m/s]	speed of sound, 313.15 K [m/s]	speed of sound, 318.15 K [m/s]
m1 = 0.01314	939.723 ± 0.54	935.116 ± 0.54	930.504 ± 0.54	925.882 ± 0.54	921.254 ± 0.55	1457.2 ± 1.3	1437.5 ± 1.3	1417.7 ± 1.3	1398.1 ± 1.3	1378.6 ± 1.3
m1 = 0.02301	942.289 ± 0.54	937.692 ± 0.54	933.085 ± 0.54	928.469 ± 0.54	923.849 ± 0.54	1458 ± 1.3	1438.3 ± 1.3	1418.6 ± 1.3	1399.1 ± 1.3	1379.6 ± 1.3
m1 = 0.03274	944.807 ± 0.53	940.214 ± 0.53	935.612 ± 0.53	931.002 ± 0.54	926.384 ± 0.54	1458.8 ± 1.3	1439.2 ± 1.3	1419.5 ± 1.3	1400 ± 1.3	1380.6 ± 1.3
m1 = 0.04665	948.382 ± 0.53	943.793 ± 0.53	939.196 ± 0.53	934.591 ± 0.53	929.98 ± 0.53	1459.9 ± 1.3	1440.4 ± 1.3	1420.8 ± 1.3	1401.4 ± 1.3	1382 ± 1.3
m1 = 0.06587	953.282 ± 0.53	948.701 ± 0.53	944.112 ± 0.53	939.515 ± 0.53	934.912 ± 0.53	1461.4 ± 1.3	1441.9 ± 1.3	1422.5 ± 1.3	1403.1 ± 1.3	1383.8 ± 1.3
m1 = 0.08329	957.7 ± 0.52	953.122 ± 0.52	948.539 ± 0.53	943.99 ± 0.53	939.4 ± 0.53	1462.7 ± 1.3	1443.3 ± 1.3	1423.9 ± 1.3	1405 ± 1.3	1385.8 ± 1.3
m1 = 0.1042	963.001 ± 0.52	958.419 ± 0.52	953.839 ± 0.52	949.253 ± 0.52	944.664 ± 0.52	1464.5 ± 1.3	1445 ± 1.3	1425.7 ± 1.3	1406.5 ± 1.3	1387.4 ± 1.3
m1 = 0.1312	969.764 ± 0.52	965.202 ± 0.52	960.631 ± 0.52	956.055 ± 0.52	951.474 ± 0.52	1466.2 ± 1.3	1447 ± 1.3	1427.8 ± 1.3	1408.8 ± 1.3	1389.8 ± 1.3
m1 = 0.1609	977.195 ± 0.51	972.637 ± 0.51	968.076 ± 0.51	963.509 ± 0.51	958.937 ± 0.51	1468.4 ± 1.3	1449.3 ± 1.3	1430.3 ± 1.3	1411.3 ± 1.3	1392.5 ± 1.3
m1 = 0.1965	985.908 ± 0.51	981.362 ± 0.51	976.808 ± 0.51	972.249 ± 0.51	967.689 ± 0.51	1470.8 ± 1.3	1451.9 ± 1.3	1432.9 ± 1.3	1414.1 ± 1.3	1395.4 ± 1.3
